Data on one compound can be found in patent publication US5985893A, “Physically stable solid form of a fluoroquinolone” (Pharmacia & Upjohn Company, priority 1996, dated 1999).

Holding throughout (type): physicochemical
Data set [1] is described as follows: Stability of the solid forms to phase transformation (overall finding). The note with it: variety of conditions.
The nature of data set [2]: Powder XRD after humidity exposure. To be noted: 75% relative humidity, ambient temperature, 5 days. The procedure: A Rigaku DMAX-A X-ray diffractometer is employed for the acquisition of the powder XRD patterns. The instrument is operated with the copper K-L3 radiation at 1.5406 Å. The major instrumental parameters are set as follows: 40 KV voltage, 30 mA current, beam aperture of 1° and detector aperture (receiving slit) of 0.30°. Patterns are scanned over the range of 3-40° two-theta angles with a scan rate of 1.5° two-theta/min (step size of 0.05° and counting time at 2 second/step). Samples are ground to fine powders and packed into an aluminum tray.

A short description of data set [3]: Isothermal calorimetry (ITC) of Form I to Form III conversion. The procedure: Isothermal calorimetry (ITC) experiments are conducted using a model 2277 microcalorimeter made by ThermoMetric (see Suurkuusk, J.:Wadso, I. Chem. Scr. (1982) Vol. 20 pp. 155-163). The Digitam® version 2.1 software from Thermometric is used to display the data and to integrate the total heat obtained from the samples. Heat flow is monitored as a function of time at 60° C. and at 40° C. Both glass and stainless steel ampules are used to hold the solid samples and the reference material (quartz sand). Samples are thermally equilibrated for a period ranging from 15 minutes (glass ampules) to 1 hour (stainless steel ampules) prior to recording thermal data. The weight of the samples ranged from about 75 to 300 mg. Samples in glass ampules are equilibrated via the isopiestic method at 53% or 75% RH in chambers containing saturated solutions of sodium chloride or calcium nitrate tetrahydrate. The ampules are capped immediately after removing the samples. Other samples are equilibrated using "microhygrostats" containing small quantities of saturated salt solutions which are sealed within the ampules. This arrangement provided for nearly constant relative humidity as the crystal conversion proceeded.
We therefore studied the transformation of samples after equilibration at […] and 75% RH. […] HPLC analysis of the reaction product confirmed that the 60° C. ITC profiles contained negligible contributions from chemical decomposition.
A detailed explanation of FIG. 9 follows. […] Trace (a) is recorded from a sample of Form I equilibrated to 75% relative humidity before sealing the sample container and exposing it to the 60° C. conditions in the calorimeter. Trace (b) is recorded for a sample of Form I at 60° C., but a 75% relative humidity "microhygrostat" is placed in the sample container just prior to recording the data. The conversion is delayed from that of trace (a) due to the fact that the water must be transported from the microhygrostat to the Form I crystals during the experiment. Trace (c) is recorded for a sample of Form I at 60° C., but the sample was equilibrated at 53% relative humidity prior to sealing the sample container.
This trace results from placing a 75% relative humidity microhygrostat into the sample container just prior to recording the data. The sample is held at 40° C. in the calorimeter; the heat flow results as the Form I material converts to Form III.

Data set [4] can be described thus: DSC and thermomicroscopy of solid-state transformations. As for the experimental part: A Nikon POH-2 polarized light compound microscope with 10× objective is employed to view specimens mounted dry between a glass microscope slide and a no. 11/2 Cover slip. The samples are heated from ambient through 250° C. in a Mettler FP-80 microfurnace controlled by a Mettler FP-8 microprocessor. The heating rates may vary from 5-20° C./minute. The hot-stage experiments may be videotaped (Sony T120-HG and PM VHS tape) with a Hitachi VK-C350 Color Video Camera and a Panasonic AG-6200 Video Cassette Recorder.
Differential scanning calorimetry (DSC) is used to monitor enthalpy changes as a function of temperature during a linear temperature increase. A DuPont 910 DSC interfaced to a TA Instruments TA2100 computer may be used. The scan rate is 5° C./minute, and the instrument is operated with a 50-80 cc/min dry nitrogen purge. Samples are encapsulated in hermetically sealed aluminum sample pans with a pressure rating of about 2 bar. In some experiments, the lids of the pans are perforated to permit the passage of moisture and other volatile components.
Because calorimetric samples are occasionally affected by residual moisture, samples are sometimes studied with different initial water activities. Samples are weighed into tared DSC pans, and the open pans are permitted to equilibrate for several days in chambers of constant relative humidity at 25±1° C. These chambers are prepared from saturated salt solutions at 53% RH and 75% RH. At the end of the equilibration period, the chambers are opened, and the lids are placed over the samples to prevent re-equilibration with the ambient atmosphere. The samples are removed from the chambers, and the pans are quickly crimped closed.
Detailed description of FIG. 8. […] The heating rate is 5° C./minute. (a.) The sample is encapsulated in a standard DSC pan. (b.) The sample is encapsulated in a hermetically sealed DSC pan. The profiles are offset along the ordinate axis for comparison.
Detailed description of FIG. 10. […] The heating rate was 5° C./minute. (a.) The sample was equilibrated at 53% RH and encapsulated in a standard DSC pan. (b.)The sample was equilibrated at 53% RH and encapsulated in a hermetically sealed DSC pan. (c.) The sample was equilibrated at 75% RH and encapsulated in a hermetically sealed DSC pan. The profiles were offset along the ordinate axis for comparison.

“And” between values parts separate entries of the source, which are not always exact repeats. Equal entries are not always repeated.

Take `CN[C@@H](C)[C@@H]1CCN(c2c(F)cc3c(=O)c(C(=O)O)cn(C4CC4)c3c2OC)C1` [Form I, [S-(R*,S*)]-1-cyclopropyl-6-fluoro-1,4-dihydro-8-methoxy-7-[3-[1-(methylamino)ethyl]-1-pyrrolidinyl]-4-oxo-3-quinolinecarboxylic acid]: the “Stability to transformation (in words)” value in data set [1] is on record as “undergo phase transformations under a variety of conditions”. The “Diffraction pattern after humidity exposure” value in data set [2] was “does not change after Form I is exposed to 75% relative humidity at ambient temperature for 5 days”. Moreover, in data set [3] (40° C, 75% RH microhygrostat), the “Conversion exotherm, beginning” value was “about 6 hours” and the “Conversion exotherm, end” value is given as “about 50 hours”. Also, the “Rate of conversion Form I to Form III, dependence on humidity” value in data set [3] (60° C, 51% vs 75% RH) is given as “slower at 51% RH than at 75% RH by about two orders of magnitude”. The “Integrated enthalpy change, low moisture sample” value in data set [3] (60° C, after 80 hours, mixture of Forms I and III) was “about 10 J/g”. The “Final state of high moisture sample (in words)” value in data set [3] (60° C, equilibrated at 75% RH, by XRD and DSC) is on record as “converted completely to Form III”. In addition, in data set [3] (> 7 days at 40° C./50% RH or 5 days at 60° C.), the “Conversion of Form I to Form III under dry conditions (in words)” value is “did not convert to Form III under dry conditions, even after greater than 7 days at 40° C./50% RH or after 5 days at 60 °C”. Besides, the “Initial water content of Form I sample” value in data set [3] (before ITC at 40° C) was determined as 0.54%. Also, the “Conversion of Form I to Form III (in words)” value in data set [3] (equilibrated at 75% RH, 60° C) was “convert completely to Form III in less than one day at 60 °C”. Also, in data set [3] (initial water activity at least 53% RH), the “Conversion of Form I to Form III (in words)” value was “direct conversion of Form I to Form III occurs without the formation of Form II”. Moreover, in data set [3] (microcalorimeter), the “Lowest temperature at which conversion of Form I to Form III was observed” value was determined as 40 °C. Moreover, in data set [4] (FIG. 8, 5° C./minute), the “DSC first merged endotherm/exotherm (melt/recrystallization)” value was 140-150 °C and the “DSC second merged endotherm/exotherm (melt/recrystallization)” value is 165-180 °C. In addition, the “DSC melt/recrystallization range, probably direct Form I to Form III” value in data set [4] (equilibrated at 53% RH, hermetically sealed pan) was 140-150 °C. For the same compound, the “DSC exotherm prior to Form III melt” value in data set [4] (equilibrated at 75% RH, hermetically sealed pan) was “about 130 °C”. The “Temperature of Form I to Form II transformation” value in data set [4] (slow heating/ thermomicroscopy melt/recrystallization) was 140-151 °C and 143-151 °C.
